In PubChem BioAssay AID2060490 (Molecular Pharmacology Branch, DTP, NCI, 2025):

Test system: 885512-296-R-J2-PDC complex spheroid viability
Test: Anticancer human tumor 885512-296-R-J2-PDC patient-derived breast carcinoma cell line growth inhibition [GQUAD]
Conditions: for IC50: curve of first compound; for viability, T/C: stronger effect = lower value; active means viability on the fitted dose curve at most 10% of control; inactive means the rest
Procedure, shortened: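 Tumor cells were grown as complex spheroids with HUVEC endothelial cells and mesenchymal stem cells as stroma. G-quadruplex stabilizers were combined with targeted agents over half-log dilutions from near the clinical Cmax, or from 10 microM.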

[1] = second compound 0.0316 µM, first compound 0.0316 µM
[2] = second compound 0.0316 µM, first compound 0.1 µM
[3] = second compound 0.0316 µM, first compound 0.316 µM
[4] = second compound 0.0316 µM, first compound 1 µM
[5] = second compound 0.0316 µM, first compound 3.16 µM
[6] = second compound 0.0316 µM, first compound 10 µM
[7] = second compound 0.1 µM, first compound 0.0316 µM
[8] = second compound 0.1 µM, first compound 0.1 µM
[9] = second compound 0.1 µM, first compound 0.316 µM
[10] = second compound 0.1 µM, first compound 1 µM
[11] = second compound 0.1 µM, first compound 3.16 µM
[12] = second compound 0.1 µM, first compound 10 µM
[13] = second compound 0.316 µM, first compound 0.0316 µM
[14] = second compound 0.316 µM, first compound 0.1 µM
[15] = second compound 0.316 µM, first compound 0.316 µM
[16] = second compound 0.316 µM, first compound 1 µM
[17] = second compound 0.316 µM, first compound 3.16 µM
[18] = second compound 0.316 µM, first compound 10 µM
[19] = second compound 1 µM, first compound 0.0316 µM
[20] = second compound 1 µM, first compound 0.1 µM
[21] = second compound 1 µM, first compound 0.316 µM
[22] = second compound 1 µM, first compound 1 µM
[23] = second compound 1 µM, first compound 3.16 µM
[24] = second compound 1 µM, first compound 10 µM
[25] = second compound 3.16 µM, first compound 0.0316 µM
[26] = second compound 3.16 µM, first compound 0.1 µM
[27] = second compound 3.16 µM, first compound 0.316 µM
[28] = second compound 3.16 µM, first compound 1 µM
[29] = second compound 3.16 µM, first compound 3.16 µM
[30] = second compound 3.16 µM, first compound 10 µM
[31] = second compound 10 µM, first compound 0.0316 µM
[32] = second compound 10 µM, first compound 0.1 µM
[33] = second compound 10 µM, first compound 0.316 µM
[34] = second compound 10 µM, first compound 1 µM
[35] = second compound 10 µM, first compound 3.16 µM
[36] = second compound 10 µM, first compound 10 µM
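Further: spheroids exposed to the compounds for one week.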
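Wherever viability, T/C is given: percent of tumor spheroid viability relative to DMSO vehicle control wells.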

CC(C)n1c(=O)n(C)c2cnc3cc(F)c(-c4ccc(OCCCN5CCCCC5)nc4)cc3c21 + CN(C)c1ccc(Nc2c3ccc(NC(=O)CCN4CCCC4)cc3nc3cc(NC(=O)CCN4CCCC4)ccc23)cc1
inactive: viability, T/C [1] 89.9% | viability, T/C [2] 81.4% | viability, T/C [3] 97.1% | viability, T/C [4] 84.5% | viability, T/C [5] 118% | viability, T/C [6] 98.2% | viability, T/C [7] 81.3% | viability, T/C [8] 87.5% | viability, T/C [9] 82.2% | viability, T/C [10] 95.7% | viability, T/C [11] 108% | viability, T/C [12] 72.4% | viability, T/C [13] 83.4% | viability, T/C [14] 69.8% | viability, T/C [15] 84.3% | viability, T/C [16] 92.9% | viability, T/C [17] 118% | viability, T/C [18] 78.6% | viability, T/C [19] 84% | viability, T/C [20] 86.3% | viability, T/C [21] 94.5% | viability, T/C [22] 87.9% | viability, T/C [23] 94.8% | viability, T/C [24] 54.3% | viability, T/C [25] 75.3% | viability, T/C [26] 70.4% | viability, T/C [27] 52% | viability, T/C [28] 47.5% | viability, T/C [29] 35.4% | viability, T/C [30] 18.8% | viability, T/C [31] 16.4% | viability, T/C [32] 14.6% | viability, T/C [33] 13.3%
654 nM: IC50 (second compound 3.16 µM)
active: viability, T/C [34] 10.1% | viability, T/C [35] 9.73% | viability, T/C [36] 2.68%
> 10000 nM: IC50 (second compound 0.0316 µM) | IC50 (second compound 0.1 µM) | IC50 (second compound 0.316 µM) | IC50 (second compound 1 µM)
< 31.6 nM: IC50 (second compound 10 µM)

Cn1ncnc1[C@H]1c2n[nH]c(=O)c3cc(F)cc(c23)N[C@@H]1c1ccc(F)cc1 + Cc1cnc(CNC(=O)c2c(=O)c3ccc(N4CCCN(C)CC4)nc3n3c2sc2ccccc23)cn1
active: viability, T/C (second compound 10 µM, first compound 0.000999 µM) 0.17% | viability, T/C (second compound 10 µM, first compound 0.00316 µM) 0.23% | viability, T/C (second compound 10 µM, first compound 0.00999 µM) 0.25% | viability, T/C [31] 0.19% | viability, T/C (second compound 10 µM, first compound 0.0999 µM) 0.2% | viability, T/C [33] 0.23%
3.57 nM: IC50 (second compound 0.1 µM)
< 0.999 nM: IC50 (second compound 0.316 µM) | IC50 (second compound 1 µM) | IC50 (second compound 3.16 µM) | IC50 (second compound 10 µM)
inactive: viability, T/C (second compound 0.0316 µM, first compound 0.000999 µM) 89.2% | viability, T/C (second compound 0.0316 µM, first compound 0.00316 µM) 83.8% | viability, T/C (second compound 0.0316 µM, first compound 0.00999 µM) 73.5% | viability, T/C [1] 57% | viability, T/C (second compound 0.0316 µM, first compound 0.0999 µM) 34.4% | viability, T/C [3] 25.5% | viability, T/C (second compound 0.1 µM, first compound 0.000999 µM) 51.7% | viability, T/C (second compound 0.1 µM, first compound 0.00316 µM) 57.4% | viability, T/C (second compound 0.1 µM, first compound 0.00999 µM) 37.1% | viability, T/C [7] 34% | viability, T/C (second compound 0.1 µM, first compound 0.0999 µM) 27.3% | viability, T/C [9] 21.1% | viability, T/C (second compound 0.316 µM, first compound 0.000999 µM) 31.3% | viability, T/C (second compound 0.316 µM, first compound 0.00316 µM) 24% | viability, T/C (second compound 0.316 µM, first compound 0.00999 µM) 24.2% | viability, T/C [13] 20.5% | viability, T/C (second compound 0.316 µM, first compound 0.0999 µM) 24% | viability, T/C [15] 20.1% | viability, T/C (second compound 1 µM, first compound 0.000999 µM) 27.4% | viability, T/C (second compound 1 µM, first compound 0.00316 µM) 22.9% | viability, T/C (second compound 1 µM, first compound 0.00999 µM) 24.3% | viability, T/C [19] 19.2% | viability, T/C (second compound 1 µM, first compound 0.0999 µM) 20% | viability, T/C [21] 21.6% | viability, T/C (second compound 3.16 µM, first compound 0.000999 µM) 30.3% | viability, T/C (second compound 3.16 µM, first compound 0.00316 µM) 26.9% | viability, T/C (second compound 3.16 µM, first compound 0.00999 µM) 23.2% | viability, T/C [25] 26.2% | viability, T/C (second compound 3.16 µM, first compound 0.0999 µM) 21.3% | viability, T/C [27] 22.2%
43.5 nM: IC50 (second compound 0.0316 µM)

Cc1cccc(N(C)C(=O)C2C(O)CCN2c2nc(C)cc(C(F)(F)F)c2C#N)c1 (stereo unspecified) + Cc1[nH]c2ccc(F)cc2c1-c1nc2c3cccnc3c3ncccc3c2[nH]1
active: viability, T/C [31] 3.35% | viability, T/C [32] 3.56% | viability, T/C [33] 2.69% | viability, T/C [34] 2.33% | viability, T/C [35] 2.29% | viability, T/C [36] 2.63%
inactive: viability, T/C [1] 101% | viability, T/C [2] 92.6% | viability, T/C [3] 108% | viability, T/C [4] 97.3% | viability, T/C [5] 96.7% | viability, T/C [6] 91.5% | viability, T/C [7] 98.5% | viability, T/C [8] 99.8% | viability, T/C [9] 100% | viability, T/C [10] 94.2% | viability, T/C [11] 105% | viability, T/C [12] 93.2% | viability, T/C [13] 90.2% | viability, T/C [14] 98.9% | viability, T/C [15] 98.8% | viability, T/C [16] 94.2% | viability, T/C [17] 90.7% | viability, T/C [18] 82.4% | viability, T/C [19] 83.5% | viability, T/C [20] 78.2% | viability, T/C [21] 87.4% | viability, T/C [22] 88.8% | viability, T/C [23] 90.5% | viability, T/C [24] 68.6% | viability, T/C [25] 30.2% | viability, T/C [26] 30.1% | viability, T/C [27] 16.5% | viability, T/C [28] 22.4% | viability, T/C [29] 20.8% | viability, T/C [30] 19.9%
> 10000 nM: IC50 (second compound 0.0316 µM) | IC50 (second compound 0.1 µM) | IC50 (second compound 0.316 µM) | IC50 (second compound 1 µM)
< 31.6 nM: IC50 (second compound 3.16 µM) | IC50 (second compound 10 µM)
